Assays:
Atoh1 = Atoh1 induction assay in mouse cerebellar neural precursor cells (Atoh1-GFP reporter assay); format: cell-based; conditions: maximum fold difference over DMSO control (=1), cerebellar NPCs from Atoh1-GFP mice, 10 doses 50 μM to 200 nM, 72 hours treatment, read-out: Fold Difference (ratio of Atoh1-GFP average intensity_FC to DMSO_Max)
Procedure: Atoh1 induction assay was conducted with in vitro cultured cerebellar neural precursor cells isolated from neonatal transgenic Atoh1-GFP mice. Atoh1 expression is mainly regulated by the enhancer, and the nuclear GFP was driven by the cloned enhancer sequence at 3′ of Atoh1 which had high conservation among mammalians So Atoh1 induction could be reflected by GFP activation in cerebellar neural precursor cells (Helms et al., Development 2000; 127: 1185-1196; Lumpkin et al., Gene Expression Patterns 2003; 3: 389-395). Postnatal 3 days pups were dissected for cerebellum tissue isolation. The cerebellum tissue was cut into small pieces, and dissociated with 0.05% Trypsin for about 10 minutes at 37° C., and then filtered with a 70 uM cell strainer. The cells were cultured as neuropsheres for the first 2 days in ultra-low attachment dish/well-plate with DMEM/F12+1% N2 &2% B27 with 1% P/S, 20 ng/ml rhFGF2 and 20 ng/ml rhEGF (R&D Systems). Then the spheres were plated to the matrigel (1:30 diluted in DMEM/F12)-coated tissue culture dish for monolayer culture. After 4.5-5.5 days culture in vitro (DIV), cells were dissociated with 0.05% trypsin into single cells, and frozen after cell number calculation.
The cerebellar neural precursor cells (NPCs) were re-thawed from stock and cultured for another 2 days before used for Atoh1 induction assay. On the first day of assay, NPCs were seeded into matrigel-coated 384 well plates (Black view-plate, PE) at 2500 cells/well. After over-night culture, the NPCs were treated with representative compounds of the present disclosure with 1:2 serial dilutions for 10 doses, from 50 μM to 200 nM, with DMSO as negative control. After 72 hours treatment without medium change, the cells were fixed with 4% formalin for staining Assay plates were stained with GFP antibody (Abcam, #13970, 1:1000) to amplify endogenous GFP signal and then read by Cellomics. […] Table 1 Atoh1 activation by treatment of Compounds of the present disclosure (Atoh1-GFP reporter assay in cerebellar NPCs)

[1] = tested on: mouse cochlea explants with hair cell damage; assay: Ex vivo hair cell induction assay using 6-day-postnatal mouse cochlea explants with hair cell damage; format: cell-based; conditions: 10 μM; neomycin-damaged P6 Atoh1-GFP mouse cochlea explants; 8 days treatment; Mean ± SD; DMSO control 0
Procedure: Ex Vivo Hair Cell Induction Assay Using 6-Day-Postnatal Mouse Cochlea Explants with Hair Cell Damage
P6, postnatal 6 days, Atoh1-GFP mice, the same mouse strain used for Atoh1 induction assay described before, were used in this assay. The otic capsule was exposed and the cochleae were micro-dissected. The basilar membrane was separated from the organ of Corti and in vitro cultured in serum free medium (culture medium: DMEM/F12+1% N2+2% B27+5 μg/ml ampicillin) at 37° C. under a standard gas atmosphere of humidified air/5% CO2. Inner ear hair cells were damaged by 1 mM Neomycin treatment for […] After the neomycin treatment, explants were cultured in blank culture medium for 7 days before the treatment of selected compounds.
For compound administration, the cochlea explants were treated with 3 to 10 μM compound of the present disclosure, with DMSO as the negative control for 8 days with once compound/medium change. After 8 days treatment, the tested compound was removed. The explants were cultured in blank medium for additional 4 days. The cochlea explant cultures then were fixed with 4% w/v formalin and processed for Myo7a immunofluorescence (Myo7a is a specific marker for sensory hair cell) using the rabbit anti-Myo7a antibody (Protus Biosci #25-6790, 1:250 diluted in PBS containing 3% BSA). Rhodamine labeled Goat-anti-rabbit IgG (Molecular Prob. #R6394, 1:1000 diluted in PBS containing 3% BSA) was used as the secondary antibody to visualize the Myo7a positive cells. The images were collected and analyzed using the EVOS image system (Thermo-Fisher Scientific). […] The hair cell identity of the ectopically formed cells was confirmed by staining the cells with multiple hair cell markers.
The efficacy of hair cells induction in this assay is represented by the responsive length percentage of Atoh1 and Myo7a double positive cells in the damaged whole explants after compound treatment. The responsive length percentage was calculated according to the equation of ((the explant length with Atoh1 and Myo7a double positive cells/the full length of cochlea explant)*100%). Note the value of DMSO control is 0% due to total damage of hair cells, and any responsive length percentage more than 20% is considered as significant hair cell induction.

| SMILES | maximal fold induction (Atoh1) | Atoh1-GFP/Myo7a cell numbers in 25%-50% length from Apex [1] | Response ratio (Response length/full length %) [1] |
| --- | --- | --- | --- |
| NC(=O)CN1CCN(CCCCCNC(=O)c2cc(-c3cccs3)on2)CC1 [Example 18, N-(5-(4-(2-amino-2-oxoethyl)piperazin-1-yl)pentyl)-5-(thiophen-2-yl)isoxazole-3-carboxamide] | 20.4 | 16.1 ± 3.0 | 59.4 ± 5.3% |
| NC(=O)[C@H](O)CN1CCN(CCCCCNC(=O)c2cc(-c3cccs3)on2)CC1 [Example 37 R, (R)—N-(5-(4-(3-amino-2-hydroxy-3-oxopropyl)piperazin-1-yl)pentyl)-5-(thiophen-2-yl)isoxazole-3-carboxamide] | – | 13.6 ± 4.0 | 42.2 ± 7.7% |
| NC(=O)C1CN(CCCCCNC(=O)c2cc(-c3cccs3)on2)CC1O (single isomer, unassigned) [33 peak 1] | 34.8 | 19.4 ± 2.7 | 62.1 ± 11.8% |
| NC(=O)[C@@H](O)CN1CCN(CCCCCNC(=O)c2cc(-c3cccs3)on2)CC1 [Example 37 S, (S)—N-(5-(4-(3-amino-2-hydroxy-3-oxopropyl)piperazin-1-yl)pentyl)-5-(thiophen-2-yl)isoxazole-3-carboxamide] | – | 11.1 ± 3.0 | 50.1 ± 16.8% |
| NC(=O)C(O)CN1CCN(CCCCCNC(=O)c2cc(-c3cccs3)on2)CC1 (stereo not shown) [Example 37, N-(5-(4-(3-amino-2-hydroxy-3-oxopropyl)piperazin-1-yl)pentyl)-5-(thiophen-2-yl)isoxazole-3-carboxamide] | 27.6 | 16.3 ± 4.0 | 56.9 ± 8.8% |
| NC(=O)[C@@H]1CN(CCCCCNC(=O)c2cc(-c3cccs3)on2)CC[C@H]1O [35 trans] | 24.8 | 14.2 ± 1.8 | 63.9 ± 5.8% |
